# In US20050042714A1, “Glycoconjugates of sialic acid derivates, methods for their production and use thereof” (priority 2001, published 2005):
# Experiments:
# Assay type in all cases: cell-based, human
# [1] = tested on: HL60-I cells; test: metabolic complementation assay: lectin staining (VVA, LFA, TLM) of analogue-treated cells by flow cytometry; conditions: 5 mM, 24 h; for effect on VVA binding: decrease = masking of GalNAc by sialic acid
# Procedure: Medium supplementation with some synthetic sialic acid analogues restores cell surface sialylation in hyposialylated HL60-I cells. Cells were cultivated in the presence of indicated synthetic sialic acid analogue (5 mM) for 24 h and stained with either directly fluorochrome-coupled lectins (VVA, LFA) or biotin-coupled lectin (TLM) and streptavidin-FITC and analyzed by flow cytometry. Values are given as “relative factor of change” (RFC) of the “mean fluorescence intensity” (MFI) of sialic acid-treated cells relative to untreated cells. The bars represent arithmetic means±SD (n^34) of one (x) or ≧two experiments.
# To test whether cells can incorporate synthetic sialic acid analogues from the culture medium, a metabolic complementation assay was performed on endogenously hyposialylated, UDP-GlcNAc-2-epimerase-deficient HL60-I cells.
# Cells were cultivated for 24 h in the presence of one of 16 different synthetic sialic acid analogues, carrying distinct C5 or C9 modifications (FIG. 1), and subsequently, changes in cell surface sialylation were assessed by flow cytometry using three fluorochrome-conjugated sialic acid-sensitive lectins. Vicia villosa agglutinin (VVA) detects GalNAc residues, and its binding sites can be masked by the addition of terminal sialic acid residues.
# In sugar supplementation assays, cells seeded at 5×10^5 cells/ml in culture medium buffered with 40 mM HEPES (pH 7.2) were cultivated for 24 h in the presence or absence of 5 mM sialic acids (stocks of 100 mM dissolved in H2O, stored at 4° C.).
# (§1) Lyophilized FITC-conjugated lectins Vicia villosa (VVA) was obtained from Sigma, dissolved in H2O (1 mg/ml), aliquoted and stored at −20° C. according to the manufacturer's instructions. FITC-conjugated Limax flavus agglutinin (LFA) was from EY Laboratories (San Manteo, Calif., USA) and biotin-coupled Tritrichomonas mobilensis agglutinin (TLM) from Calbiochem. Lectin staining procedure and fluorescence-activated cell scanning on a Becton Dickinson FACScan cytometer using Cellquest II software were carried out as described (Keppler, O. T., Molden-hauer, G., Oppenländer, M., Schwartz-Albiez, R., Berger, E. G., Funderud, S., and Pawlita, M. (1992) Eur J Immunol 22(11), 2777-81). Briefly, cells (3×10^5) were washed twice in cold PBS and then incubated in 100 μl PBS/0.05% NaN3, containing either fluorochrome-conjugated lectins VVA (50 μg/ml), LFA (20 μg/ml), or biotinylated TLM (20 μg/ml) for 45 min on ice in the dark. For biotinylated TLM a secondary incubation step with steptavidin-FITC (20 μg/ml) (Sigma) for 30 min on ice in the dark is required. After washing with PBS, cells were resuspended in 300 μl PBS and analyzed by flow cytometry.
# [2] = tested on: BJA-B K20 cells; test: HPLC of membrane-associated sialic acids from analogue-treated cells; conditions: serum-free, 5 mM, 48 h
# Procedure: Sialic acid analogues are incorporated in cell surface glycoconjugates. HPLC chromatograms of DMB-derivatised sialic acids hydrolysed from glycoproteins of sialic acid analogue-treated BJA-B K20 cells. (A) standards, (B) untreated cells, (C) cells cultivated in 5-N-fluoroacNeu, (D) cells cultivated in 9-iodo-NeuAc. Peaks were identified as follows: NeuGc (internal standard), NeuAc, 5-N-fluoroac-Neu, 9-iodo-NeuAc, Na-pyruvate (internal standard). Internal standards were added to each sample.
# To confirm that synthetic sialic acid analogues supplementing the medium were taken up and metabolically incorporated as analogues into surface sialoglyco-conjugates the membrane-associated sialic acid fraction was analyzed by High Performance Liquid Chromatography (HPLC). […]
# To confirm that the modifications are still present after incorporation into glycoconjugates sialic acids were cleaved off cell surfaces and analyzed by HPLC. […] Sialic acids derivation was performed according to a method as given below and samples were analyzed on a reversed-phase C18 column as described (Keppler, O. T., Stehling, P., Herrmann, M., Kayser, H., Grunow, D., Reutter, W., and Pawlita, M. (1995) J Biol Chem 270(3), 1308-14).
# [3] = tested on: HL60-I cells; test: uptake of peracetylated/esterified NeuAc: VVA and TML lectin staining by flow cytometry; conditions: for effect on cell surface sialylation (VVA and TML binding): 0.03 to 1 mM (NeuAc 1 or 5 mM), 0.5% DMSO
# Procedure: Peracetylation of NeuAc only facilitates uptake if the carboxyl group is additionally esterified. Hyposialylated HL60-I cells were cultivated in the presence of indicated synthetic sialic acid analogue (stock solution 200 mM in DMSO) ranging from 0.03 to 1 mM or 0, 1 or 5 mM NeuA for 72 h with DMSO concentrations adjusted to 0.5%. Cells were stained with either directly fluorochrome-coupled lectin VVA, or biotin-coupled lectin (TML) and streptavidin-FITC for analysis by flow cytometry. Values given are relative factors of change of the mean fluorescence intensity of pretreated cells relative to untreated cells. The bars represent arithmetic means±SD (n=3). Molecular structures are given below the diagram.
# Sugars are very hydrophilic and it has been shown that increasing the hydrophobicity by peracetylation of hydroxyl groups enables or facilitates uptake of disaccharides (Collins, B. E., Fralich, T. J., Itonori, S., Ichikawa, Y. and Schnaar, R. L. (2000) Glycobiology, 10, 11-20; Sarkar, A. K., Fritz, T. A., Taylor, W. H. and Esko, J. D. (1995) Proc Natl Acad Sci USA, 92, 3323-7; Sarkar, A. K., Rostand, K. S., Jain, R. K., Matta, K. L. and Esko, J. D. (1997) J Biol Chem, 272, 25608-16). For ManNAc derivatives it has been shown that peracetylation reduces required medium concentrations (Collins et al., 2000). The acetyl groups are cleaved-off intracellularly by cellular esterases (Collins et al., 2000; Sarkar et al., 1995; Sarkar et al., 1997) and the derivatives are then processed as known for the non-acetylated sugars. In order to address the question whether peracetylation also facilitates uptake of N-acetylneuraminic acid, HL60-I cells were cultivated in the presence of peracetylated NeuAc at concentrations ranging from 0.03 mM to 1 mM for 3 days. Changes in cell surface sialylation were measured by flow cytometry using Vicia Villosa agglutinin (VVA) and Tritrichomonas mobilensis lectin (TML). […] This represents a reduction in concentration by more than 16-fold and is in a similar range as reported for peracetylated ManNAc and ManNAc (Collins et al., 2000).
# as §1
Compound,effect on LFA binding [1],effect on TLM binding [1],effect on VVA binding [1],further results
"CCOC(=O)C1(O)C[C@H](O)[C@@H](NC(C)=O)[C@H]([C@H](O)[C@H](O)CO)O1 (stereo partly shown) [analogue p, ethyl N-acetyl neuraminate]",increased binding of LFA,increased binding,significantly decreased VVA-binding,effect on LFA binding ([1]; listed as NeuAc-Et-Ester): very similar to those of NeuAc; effect on TLM binding ([1]; listed as NeuAc-Et-Ester): very similar to those of NeuAc
"CC(=O)N[C@H]1[C@H]([C@H](O)[C@H](O)CNC(=O)CCC(=O)O)OC(O)(C(=O)O)C[C@@H]1O (stereo partly shown) [analogue e, 5-N-acetyl-9-deoxy-9-succinylamido-neuraminic acid]",,,weak or no effect on VVA binding,
"CC(=O)N[C@H]1[C@H]([C@H](O)[C@H](O)CNC(=O)CN)OC(O)(C(=O)O)C[C@@H]1O (stereo partly shown) [analogue d, 9-N-aminoacetamido-9-deoxy-neuraminic acid]",,,weak or no effect on VVA binding,
"O=C(CF)N[C@H]1[C@H]([C@H](O)[C@H](O)CO)OC(O)(C(=O)O)C[C@@H]1O (stereo partly shown) [analogue j, 5-N-fluoroacetyl-neuraminic acid]",increased binding of LFA,increased binding,significantly decreased VVA-binding,share of membrane-associated sialic acids consisting of the analogue [2]: 90.5%
CC(=O)NC1C(OC(C)=O)CC(OC(C)=O)(C(=O)O)OC1C(OC(C)=O)C(COC(C)=O)OC(C)=O (stereo not shown) [NeuAcperOAc],,,,"effect on cell surface sialylation (VVA and TML binding) ([3]; HL60-I cells, 72 h): no effect on cell surface sialylation"
COC(=O)C1(OC(C)=O)C[C@H](OC(C)=O)[C@@H](NC(C)=O)[C@H]([C@H](OC(C)=O)[C@@H](COC(C)=O)OC(C)=O)O1 (stereo partly shown) [NeuAcperOAc-Me-ester],,,,"reduction in concentration relative to NeuAc ([3]; 0.3 mM vs 5 mM NeuAc): more than 16 fold; effect on cell surface sialylation (VVA and TML binding) ([3]; HL60-I cells, 72 h): strongly increased cell surface sialylation; medium concentration showing similar effects as 5 mM NeuAc ([3]; HL60-I cells, 72 h): 0.3 mM"
"CC(=O)N[C@H]1[C@H]([C@H](O)[C@H](O)CS(C)(=O)=O)OC(O)(C(=O)O)C[C@@H]1O (stereo partly shown) [analogue i, 5-N-acetyl-9-deoxy-9-methylsulfonyl-neuraminic acid]",increased binding of LFA,increased binding,significantly decreased VVA-binding,
"CC(=O)NC[C@@H](O)[C@@H](O)[C@@H]1OC(O)(C(=O)O)C[C@H](O)[C@H]1NC(C)=O (stereo partly shown) [analogue c, 5-N-acetyl-9-acetamido-9-deoxy-neuraminic acid]",,,,changes in cell surface sialylation (lectin binding overall) [1]: failed to induce changes in cell surface sialylation
"CC(=S)N[C@H]1[C@H]([C@H](O)[C@H](O)CO)OC(O)(C(=O)O)C[C@@H]1O (stereo partly shown) [analogue n, 5-N-thioacetyl-neuraminic acid]",,increased binding,significantly decreased VVA-binding,
"NCC(=O)N[C@H]1[C@H]([C@H](O)[C@H](O)CO)OC(O)(C(=O)O)C[C@@H]1O (stereo partly shown) [analogue l, 5-N-aminoacetyl-neuraminic acid]",,,weak or no effect on VVA binding,
"O=C(N[C@H]1[C@H]([C@H](O)[C@H](O)CO)OC(O)(C(=O)O)C[C@@H]1O)C(F)(F)F (stereo partly shown) [analogue k, 5-N-trifluoroacetyl-neuraminic acid]",,,significantly decreased VVA-binding,
"O=C(O)CCC(=O)N[C@H]1[C@H]([C@H](O)[C@H](O)CO)OC(O)(C(=O)O)C[C@@H]1O (stereo partly shown) [analogue m, 5-N-succinyl-neuraminic acid]",,,weak or no effect on VVA binding,
"CC(=O)N[C@H]1[C@H]([C@H](O)[C@H](O)CN)OC(O)(C(=O)O)C[C@@H]1O (stereo partly shown) [analogue b, 5-N-acetyl-9-amino-9-deoxy-neuraminic acid]",,,,changes in cell surface sialylation (lectin binding overall) [1]: failed to induce changes in cell surface sialylation
"CC(=O)N[C@H]1[C@H]([C@H](O)[C@H](O)CS)OC(O)(C(=O)O)C[C@@H]1O (stereo partly shown) [analogue g, 5-N-acetyl-9-deoxy-9-thio-neuraminic acid]",increased binding of LFA,increased binding,significantly decreased VVA-binding,
"CSC[C@@H](O)[C@@H](O)[C@@H]1OC(O)(C(=O)O)C[C@H](O)[C@H]1NC(C)=O (stereo partly shown) [analogue h, 5-N-acetyl-9-deoxy-9-methylthio-neuraminic acid]",increased binding of LFA,increased binding,significantly decreased VVA-binding,
